# Data as given in publication PMC6230386, “Gossypol from Cottonseeds Ameliorates Glucose Uptake by Mimicking Insulin Signaling and Improves Glucose Homeostasis in Mice with Streptozotocin-Induced Diabetes” (Oxidative Medicine and Cellular Longevity, 2018).
# Biological target: α-glucosidase
# Experiment: pNPG hydrolysis at […] nm; Lineweaver-Burk kinetics
# Assay type: biochemical, Saccharomyces cerevisiae
compound,measurement,value
"Cc1cc2c(C(C)C)c(O)c(O)c(C=O)c2c(O)c1-c1c(C)cc2c(C(C)C)c(O)c(O)c(C=O)c2c1O [GSP, gossypol]",IC50,670 ± 440 nM
